This is an account of results in patent US6458840B2, “Use of valproic acid analog for the treatment and prevention of migraine and affective illness” (American Biogenetic Sciences, Inc., priority 1998, dated 2002).

Series [1] can be described thus: Rotarod test (neurological deficit) in kindled rats. Type of series: in vivo, rat. The note with it: 100 mg/kg; 13′; all 8 animals +. On the procedure:
(§1) Tests included open field observations, rotarod test and body temperature. Tests were always performed in the same manner in control and drug experiments at two different times, just before application of drug or vehicle and 13 minutes after application.
The rotarod test was carried out with a rod of 6 cm diameter and rotation speed of 8 r.p.m. Neurological deficit was indicated by inability of the animals to maintain their equilibrium for at least 1 min on the rotating rod. Rats had to be trained prior to drug experiments to maintain their balance on the rod. After drug or vehicle treatment, rats which were not able to maintain their equilibrium on the rod for 1 minute were put again on the rod twice.
Background: Falling from the rotarod earlier than controls is read as motor impairment.

Another series can be described thus: Rectal body temperature. It is filed as in vivo, rat. The settings on record: 100 mg/kg; 13′ post appl.; mean of 8 rats; ante appl. 38.71. On the procedure: Female Wistar rats (Harlan-Winkelmann, Borchen, Germany) were obtained at an age of 11-12 weeks (body weight 180-200 g). Female rats were employed because they are known to eliminate drugs less rapidly than do males, which was thought to be an advantage for drug potency studies. Rats were kept separately in plastic cages at controlled temperature (23° C.) and humidity (about 50 %) with a 12-h light cycle beginning at 7 a.m. They received standard diet (Altromin; Lage, F.R.G.), tap water and libitum. All drug injections were done in the afternoon at an ambient temperature of 23-25° C. The regular protocol started by taking the rats out of their individual cage, weighing them and joining them together on a table with six open plastic cages for better behavioral observations. Therefore animals were able to move from one cage to another and either to have social contact or to avoid it. After a short adaptation time of approximately 15 minutes, rectal body temperatures were recorded followed by drug or vehicle application.
as §1
In addition to these quantitative estimations of neurological deficit, behavioral alterations observed after administration of 2-propyl-4-hexynoic acid and valproate noted in the cage and by placing the animals in an open field of 90-100 cm diameter. Muscle tone was estimated by palpation of the abdomen. The extent of deficits in behavior after administration of the compounds was determined by a rating system (Loscher et al. 1987). In short, animals were taken out of the cage, placed in an open field, observed for about 1 minute and rated separately for ataxia, abducted hindlimbs, reduced righting, flat body posture, circling, Straub tail, piloerection, hypolocomotion and hyperlocomotion (abdominal muscle tone was evaluated by palpation at the end of the period of observation). All other parameters except ataxia were scored from 0 to 3: 0-absent; 1-equivocal; 2-present; 3- intense. For ataxia (06): 1 -slight ataxia in hind-legs (tottering of the hind quarters); 2-more pronounced ataxia with dragging of hind legs; 3-further increase of ataxia and more pronounced dragging of hind legs; 4-marked ataxia, animals lose balance during forward locomotion; 5- very marked ataxia with frequent loss of balance during forward locomotion; 6-permanent loss of righting reflexes, but animal still attempts to move forward. Rectal body temperature was measured by an electronic thermometer. Body weight of the animals was recorded once daily before drug injection. Significance of differences in behavior between pre-drug and post-drug data determined in the same group of animals was calculated by the Wilcoxon signed rank test for paired replicates and for body temperature by Student's paired t-test (SigmaStat for Windows, version 1.0). Differences in body temperature were always compared only within the experimental day with the pre-drug time as control to one post-drug time.

Series [2] has as its system amygdala-kindled seizures. Briefly: Amygdala-kindling in fully kindled rats (anti-seizure effects). Type of series: in vivo, rat. The note with it: 100 mg/kg. On the procedure: For implantation of stimulation and recording electrodes, rats were anesthetized with chloral hydrate (360 mg/kg i.p.) and received stereotaxic implantation (according to the surgery methods described in the atlas of Paxinos and Watson [1986]) of one bipolar electrode in the right basolateral amygdala. Coordinates for electrode implantation were AP-2.2 mm, L-4.8 mm, V-8.5 mm. All coordinates were measured from bregma. Skull screws served as the indifferent reference electrode. The electrode assembly was attached to the skull by dental acrylic cement. After a postoperative period of 2 weeks, constant current stimulations (500 μA, 1 ms, monophasic square-wave pulses, 50/s for 1 s) were delivered to the amygdala at intervals of 1/day until ten stage 5 seizures were elicited. The electrical susceptibility of the stimulated region (threshold for induction of afterdischarges) was recorded on the first day of the experiment (initial afterdischarge threshold) as well as after kindling acquisition (with an interval of at least 4 days after the tenth stage 5 seizure) using an ascending staircase procedure. The initial current intensity was 1 OμA, and the current intensity was increased in steps of about 20% of the previous current at intervals of 1 min until an afterdischarge of at least 3 s duration was elicited. […] In addition to afterdischarge threshold, the following parameters of kindled seizures were measured in fully-kindled rats after stimulation with the afterdischarge threshold current: seizure severity was classified according to Racine (1972): 1 -immobility, eye closure, twitching of vibrissae, sniffing, facial clonus; 2-head nodding associated with more severe facial clonus; 3-clonus of one forelimb; 4-rearing, often accompanied by bilateral forelimb clonus; 5-rearing with loss of balance and falling accompanied by generalized clonic seizures. Seizure duration 1 (SD 1) was the duration of limbic (stage 1-2) and/or motor seizures (stage 3-5). Seizure duration 2 (SD 2) included the time of limbic and/or motor seizures plus the adjacent time of immobility. Afterdischarge duration 1 (ADD 1) was the time of spikes in the EEG recorded from the site of stimulation with a frequency of at least 1 /s. Afterdischarge duration 2 (ADD 2) was the total time of spikes occurring in the EEG including those, which followed the ADD 1 with lower frequency and amplitude.
The anti-seizure effects of 2-propyl-4-hexynoic acid and valproate in fully kindled rats were determined in a group of 8-9 rats (no. 784, 785, 787, 788, 789, 790 [had to be taken out of the trial, because of loss of electrodes], 791, 792, 793) with reproducible stage 5 seizures.
Drugs were injected 15 min prior to stimulation intraperitoneally. Control experiments were always performed 2-3 days before each drug experiment. For control determinations, rats received i.p. injections of vehicle (saline) with the pretreatment time of the respective drug experiment. For all drug experiments, at least 4 days were interposed between 2 drug injections in order to avoid alterations in drug potency due to cumulation or tolerance.
The significance of differences between pre-drug control recordings and recordings after drug injection was calculated by the Wilcoxon signed rank test for paired replicates (SigmaStat for Windows, version 1.0).

The test system of series [3] is amygdala-kindled seizures. The note with it: rats; cited from earlier work.
The subject of a further series is PTZ induced seizures. The note with it: literature / earlier application; cited from earlier work.

For `CC#CCC(CCC)C(=O)O` (stereo not drawn) [2-propyl-4-liexynoic acid], the “rotarod-test, day of exper.” value in series [1] came out at 0%. Also, the “BODY TEMP. (° C.) day of exper. 13′ post appl.” value in “Rectal body temperature” is 38.31 °C. Further, the “afterdisch.thresh. (ADT; μA)” value in series [2] (mean (X) of 8 kindled rats, control mean 48.50) is 126.25 μA. In addition, the “seizure severity (SS; score)” value in series [2] (mean of 8 rats, control mean 5.00) was determined as 3.63 score. The “seizure duration1 (SD1; sec)” value in series [2] (mean of 8 rats, control mean 83.00) worked out at 46.50 s. The “afterdisch.dur.1 (ADD1;sec)” value in series [2] (mean of 8 rats, control mean 86.00) came out at 62.75 s. Moreover, the “afterdisch.dur.2 (ADD2; sec)” value in series [2] (mean of 8 rats, control mean 86.88) worked out at 62.75 s. Further, the “seizure duration2 (SD2; sec)” value in series [2] (mean of 8 rats, control mean 258.75) was found to be 105.63 s.
For `CN1C(=O)CN=C(c2ccccc2)c2cc(Cl)ccc21` [Diazepam], in series [3], the “effect on complete, late-stage or spontaneous kindled seizures, in words” value (shortened to “effect on complete”) was “not effective during the late stages” and the “effect on development / early stages of kindled seizures, in words” value (“effect on development / early stages” below) is on record as “effective in inhibiting the earlier stages of seizure development”.
Turning to `O=C1NC(=O)C(c2ccccc2)(c2ccccc2)N1` [Phenytoin], in series [3], the “effect on complete” value was “effective block of spontaneous seizures” and the “effect on development / early stages” value is given as “not seizures elicited during the early stages of kindling”.
Turning to `NC(=O)N1c2ccccc2C=Cc2ccccc21` [carbamazepine], in series [3], the “effect on complete” value is on record as “suppresses complete amygdala-kindled seizures” and the “effect on development / early stages” value is on record as “ineffective in preventing their development”. The “antiepileptic effect in PTZ test, in words” value in the series on PTZ induced seizures was “less effective”.
